Here are results for 26 compounds from patent publication US4960900A, “Oxyimino derivatives of thiazole, method of preparation and use in therapy” (priority 1987, dated 1990).

Data set [1] is described as follows: in vivo. The following applies: mouse, in vivo, po; for selectivity ratio: LD50 per os/ED50 per os. Here is the method:
(§1) The toxicity of the products to be studied was investigated by the oral administration, using an esophageal tube, of each of the said products to male mice with a body weight of 18 to 22 g, divided into groups each containing 10 to 20 animals. The mortality was recorded over a 14-day period.
(§2) The results obtained, which are expressed in the form of LD50 in mg/kg, are collated in Table II below.

For data set [2], the system named is convulsions induced by supramaximal electroshock (MCE). Briefly: Anticonvulsant properties: convulsions induced by supramaximal electroshock (MCE), oral, mice. The format is in vivo. To be noted: per os, male mice, 30 min after administration; for ED50: Mus musculus, po, 0.5 h, read-out: ED50 in respect of convulsions induced by MCE.
Experimental: (§7) The anticonvulsant properties were investigated on male mice, thirty minutes after the oral administration of the substances to be studied, by the induction of convulsive seizures.
These seizures are caused either by the intraperitoneal injection of pentetrazole (125 mg/kg) or by electrical stimulation of the cornea (supra-maximal electroshock, abbreviated to MCE).
MCE: supramaximal electroshock;
*: ED50 in mg/kg, determined per os on groups each containing ten
Data set [3] is described as follows: in vivo. It counts as in vivo. To be noted: mouse, in vivo, po. Here is the method:
(§3) The neurotoxic properties were assessed on male mice by the so-called "Rota-rod" test carried out thirty minutes after the oral administration of the substances to be studied. The animals (divided into groups each containing ten male mice per dose and per product) are installed on the rod and their fall is observed over the next two minutes.
(§4) The results obtained are expressed in the form of the 50% neurotoxic dose (TD50) per os, which is the dose causing 50% of the animals to fall.
(§5) Protection index: TD50 per os/ED50 per os
(§6) *dose determined per os on groups each containing ten male mice.

Data set [4] deals with convulsions induced by pentetrazole (PTZ). Briefly: Anticonvulsant properties: convulsions induced by pentetrazole (PTZ), oral, mice. The following applies: per os, male mice, 30 min after administration, pentetrazole 125 mg/kg i.p.; for ED50: Mus musculus, po, 0.5 h, read-out: ED50 in respect of convulsions induced by PTZ. The format is in vivo.
Text: as §7
Data set [5] concerns male mice. The experiment in a line: in vivo. The following applies: for LD50: male mice. The procedure: as §1, §2
The test system of data set [6] is male mice. The experiment in a line: in vivo. It counts as in vivo. Here is the method:
as §3, §4, §5, §6

[7] abbreviates: TD50 per os/ED50 per os, MCE, read-out: Protection index MCE.
[8] abbreviates: TD50 per os/ED50 per os, PTZ, read-out: Protection index PTZ.
Where [9] appears, read: LD50, Table II, male mice, 14 days.
[10] abbreviates: LD50, Table IV, per os, male mice.
[11] abbreviates: Rota-rod, per os, male mice, 30 min after administration, read-out: TD50.
Setting [12] is: versus sodium valproate and trimethadione.

Usually ED50 stands for the dose that gives a 50% effect, or the effect in half of the subjects. As a reminder, the LD50 is the dose expected to kill half of the subjects tested.

Structures are written as SMILES. Where two headings read alike, the source gives them in different places. A value given as a limit tells only on which side of the number the result lay.

For the compound `CN1C(=O)OC(C)(C)C1=O` [TRIM, trimethadione, reference compound], the selectivity ratio in data set [1] (Therapeutic index MCE, MCE) stood at 4.4; in data set [1] (Therapeutic index PTZ, PTZ) it was 8.7; in data set [3] (setting [7]), 2; in data set [3] (setting [8]) it was 4. In data set [2], the median effective dose (ED50) was found to be 500 mg/kg.
In data set [1] (setting [9]), `CON=C(C)c1sc(C)nc1C` [Ex. 26] yielded an LD50 at 336 h greater than 1000 mg/kg. For the same compound, the ED50 in data set [4] and in data set [2] was greater than 200 mg/kg each time.
In data set [1] (setting [9]), `CCOc1ccccc1CON=C(C)c1scnc1C` [Ex. 17] gave an LD50 at 336 h greater than 1000 mg/kg. Also, the median effective dose (ED50) in data set [4] and in data set [2] was greater than 200 mg/kg throughout.
For the compound `CCON=C(C)c1scnc1C` [Ex. 4], the LD50 at 336 h in data set [1] (setting [9]) was 1000 mg/kg. Further, the ED50 in data set [4] was 120 mg/kg; in data set [2], 150 mg/kg.
`CC(=NO)c1scnc1C` [Ex. 29] returned an LD50 in data set [5] (Table II, oral, 14 days) of 1000 mg/kg. In data set [4] (30 min), the “ED50 in respect of convulsions induced by PTZ” value (“ED50 … by PTZ” for short) is reported as 200 mg/kg. In addition, the “ED50 in respect of convulsions induced by MCE” value (from here on “ED50 … by MCE”) in data set [2] is greater than 200 mg/kg.
Take `CC(=NO)c1sc(Br)nc1C` [Ex. 23]: the LD50 at 336 h in data set [1] (setting [9]) was greater than 1000 mg/kg. For the same compound, the 50% effective dose (ED50) in data set [4] and in data set [2] was greater than 200 mg/kg throughout.
In data set [1] (setting [9]), `CC(=NO)c1sc(Cl)nc1C` [Ex. 22] showed an LD50 at 336 h greater than 1000 mg/kg. For the same compound, the 50% effective dose (ED50) in data set [4] and in data set [2] was greater than 200 mg/kg throughout.
In data set [1] (setting [9]), `CCCCON=C(C)c1scnc1C` [Ex. 8, 5-(1-n-butoxyiminoethyl)-4-methylthiazole] had an LD50 at 336 h of 750 mg/kg. Moreover, the ED50 in data set [4] and in data set [2] was greater than 200 mg/kg in each case.
With `CC(=NOCc1ccccc1C)c1scnc1C` [Ex. 15], the LD50 at 336 h in data set [1] (setting [9]) is greater than 1000 mg/kg. Also, the ED50 in data set [4] stood at 60 mg/kg.
On to `CON=C(C)c1scnc1C.Cl` [Ex. 2, 5-(1-methoxyiminoethyl)-4-methylthiazole hydrochloride], for which the LD50 at 336 h in data set [1] (setting [9]) and in data set [1] (setting [10]) was 1000 mg/kg each time. In addition, the “Therapeutic index MCE” value in data set [5] (LD50 per os/ED50 per os, MCE) was found to be 10.0. The “Therapeutic index PTZ” value in data set [5] (LD50 per os/ED50 per os, PTZ) was 13.9. Moreover, the ED50 came out at 72 mg/kg in data set [4] and 100 mg/kg in data set [2]. In addition, in data set [3] (TD50), the TD50 at 0.5 h worked out at 270 mg/kg. In data set [6] (mouse, in vivo, po), the “Protection index MCE” value came out at 2.7. Moreover, the “Protection index PTZ” value in data set [6] (mouse, in vivo, po) turned out to be 3.8.
In data set [5] (Table II, oral, 14 days), `CC(=NOC(C)C)c1scnc1C` [Ex. 7] gave an LD50 greater than 1000 mg/kg. Further, the “ED50 … by PTZ” value in data set [4] (30 min) is listed as 140 mg/kg. The “ED50 … by MCE” value in data set [2] is greater than 200 mg/kg.
In data set [1] (setting [9]), `CC(=NOCC(=O)O)c1scnc1C` [Ex. 19] yielded an LD50 at 336 h greater than 1000 mg/kg. Besides, the ED50 in data set [4] and in data set [2] was greater than 200 mg/kg throughout.
Turning to `COC(=O)CON=C(C)c1scnc1C` [Ex. 18], the LD50 at 336 h in data set [1] (setting [9]) is greater than 1000 mg/kg. Moreover, the ED50 in data set [4] and in data set [2] was greater than 200 mg/kg throughout.
Regarding `CC(=NOCc1cccc(Cl)c1)c1scnc1C` [Ex. 14], the LD50 at 336 h in data set [1] (setting [9]) and in data set [1] (setting [10]) was greater than 1000 mg/kg each time. The selectivity ratio in data set [1] (Therapeutic index PTZ, PTZ) is greater than 7.1; in data set [3] (setting [8]), 5.4. For the same compound, the ED50 in data set [4] was 140 mg/kg; in data set [2], greater than 200 mg/kg. The TD50 at 0.5 h in data set [3] (setting [11]) is 750 mg/kg.
Take `CON=C(C)c1scnc1C` [Ex. 1, 5-(1-methoxyiminoethyl)-4-methylthiazole]: the LD50 at 336 h in data set [1] (setting [9]) and in data set [1] (setting [10]) was 740 mg/kg throughout. Besides, the selectivity ratio in data set [1] (Therapeutic index MCE, MCE) is 8.8; in data set [1] (Therapeutic index PTZ, PTZ) it was 11.9; in data set [3] (Protection index MCE), 4.1; in data set [3] (Protection index PTZ), 5.6. In addition, the “therapeutic indices compared with the reference products” value in data set [5] (mouse, in vivo) is reported as “better than those of the reference products”. For the same compound, the ED50 amounted to 62 mg/kg in data set [4] and 84 mg/kg in data set [2]. In data set [3] (TD50), this compound showed a TD50 at 0.5 h of 347 mg/kg. Further, the “protection indices compared with the reference products” value in data set [6] (mouse, in vivo) is “better than those of the reference products”.
In data set [1], `CC(=NOCc1ccccc1F)c1scnc1C` [Ex. 13] had an LD50 at 336 h greater than 1000 mg/kg. In addition, the selectivity ratio is greater than 5.4 in data set [1] (Therapeutic index MCE, MCE); greater than 9.5 in data set [1] (Therapeutic index PTZ, PTZ); 4 in data set [3] (setting [7]); 7.1 in data set [3] (setting [8]). For the same compound, the LD50 in data set [5] (Table IV, per os, 20160 min) is recorded as greater than 1000 mg/kg. Also, in data set [5] (setting [12]), the “therapeutic indices compared with the reference products” value was “better than those of the reference products”. The ED50 in data set [4] is 105 mg/kg; in data set [2] it was 184 mg/kg. Further, the TD50 at 0.5 h in data set [3] (setting [11]) was found to be 750 mg/kg. The “protection indices compared with the reference products” value in data set [6] (setting [12]) is on record as “better than those of the reference products”.
As to `CC(=NOC(C)C)c1scnc1C` [Ex. 6], the LD50 at 336 h in data set [1] (setting [9]) was greater than 1000 mg/kg. In addition, the ED50 in data set [4] was 112 mg/kg; in data set [2] it was greater than 200 mg/kg.
For `CCCCON=C(C)c1scnc1C.Cl` [Ex. 9, 5-(1-n-butoxyiminoethyl)-4-methylthiazole hydrochloride], the LD50 at 336 h in data set [1] (setting [9]) and in data set [1] (setting [10]) was greater than 1000 mg/kg each time. Also, the selectivity ratio is greater than 6.7 in data set [1] (Therapeutic index MCE, MCE); greater than 7.3 in data set [1] (Therapeutic index PTZ, PTZ); 4 in data set [3] (Protection index MCE); 4.4 in data set [3] (Protection index PTZ). Further, the results for the median effective dose (ED50) in data set [4] and in data set [2] were 138 mg/kg and 150 mg/kg, respectively. This compound yielded a TD50 at 0.5 h in data set [3] (TD50) of 600 mg/kg.
`CC(=NOCCN1CCCC1)c1scnc1C` [Ex. 21] showed an LD50 at 336 h in data set [1] (setting [9]) of 360 mg/kg. Moreover, the ED50 in data set [4] and in data set [2] was greater than 200 mg/kg throughout.
On to `CC(=NO)c1scnc1C` [Ex. 28, 5-(1-hydroxyiminoethyl)-4-methylthiazole], for which, in data set [1] (setting [9]), the LD50 at 336 h stood at 1000 mg/kg. The results for the ED50 in data set [4] and in data set [2] were 126 mg/kg and greater than 200 mg/kg, respectively.
In turn, `CON=C(C)c1sc(C)nc1C` [Ex. 27] came in with an LD50 in data set [5] (Table II, oral, 14 days, 20160 min) of 1000 mg/kg. In data set [4], the “ED50 … by PTZ” value is greater than 200 mg/kg. Moreover, in data set [2], the “ED50 … by MCE” value is greater than 200 mg/kg.
Regarding `CCCC(CCC)C(=O)O` [VALP, sodium valproate, reference compound], the selectivity ratio in data set [1] (Therapeutic index MCE, MCE) was determined as 4; in data set [1] (Therapeutic index PTZ, PTZ), 4; in data set [3] (setting [7]) it was 2.8; in data set [3] (setting [8]) it was 2.7.
Compound `CC(=NOCCN(C)C)c1scnc1C` [Ex. 20] showed a 50% lethal dose (LD50) at 336 h in data set [1] (setting [9]) greater than 1000 mg/kg. Further, the ED50 in data set [4] and in data set [2] was greater than 200 mg/kg in each case.
In data set [1] (setting [9]), `CON=C(C)c1sc(Br)nc1C` [Ex. 25] returned an LD50 at 336 h greater than 1000 mg/kg. The ED50 in data set [4] and in data set [2] was greater than 200 mg/kg each time.
With `CON=C(C)c1sc(Cl)nc1C` [Ex. 24], in data set [1] (setting [9]), the LD50 at 336 h is greater than 1000 mg/kg. Also, the ED50 in data set [4] and in data set [2] was greater than 200 mg/kg throughout.
As to `CC(=NOCc1cccc(C(F)(F)F)c1)c1scnc1C` [Ex. 16], the LD50 at 336 h in data set [1] (setting [9]) and in data set [1] (setting [10]) was greater than 1000 mg/kg each time. Moreover, the selectivity ratio in data set [1] (Therapeutic index PTZ, PTZ) is greater than 10.4; in data set [3] (setting [8]), 15.6. Also, the “therapeutic indices compared with the reference products” value in data set [5] (setting [12]) is “better than those of the reference products”. Besides, the ED50 is 96 mg/kg in data set [4] and greater than 200 mg/kg in data set [2]. Besides, the TD50 at 0.5 h in data set [3] (setting [11]) came to 1500 mg/kg. In addition, the “protection indices compared with the reference products” value in data set [6] (setting [12]) is “better than those of the reference products”.
